The values that follow come from ChEMBL document CHEMBL5214890 (Eur J Med Chem, 2021).

The nature of series [1]: Toxicity in male […] assessed as decrease in hepatic lipid content at 40 nmol/kg, sc administered twice daily for 3 weeks. The format is organism-based. Conditions: in vivo, 504 h.
The nature of series [2]: AUC (inifinity) in male Sprague-Dawley rat at 25 nmol/kg, sc administered as single dose and measured after 24 hrs by LC-MS/MS analysis. It counts as ADME, organism-based. Also on record: dose 25 nmol/kg, time 24 hrs, route sc. Conditions: in vivo.
Series [3] in a line: MRT in male Sprague-Dawley rat at 25 nmol/kg, sc administered as single dose and measured after 24 hrs by LC-MS/MS analysis. The format is ADME, organism-based. To be noted: in vivo.

`CCCCCCCCCCCCCCCC(=O)N[C@@H](CCC(=O)NCCCC[C@H](NC(=O)[C@H](C)NC(=O)[C@H](C)NC(=O)[C@H](CCC(N)=O)NC(=O)CNC(=O)[C@H](CCC(=O)O)NC(=O)[C@H](CC(C)C)NC(=O)[C@H](Cc1ccc(O)cc1)NC(=O)[C@H](CO)NC(=O)[C@H](CO)NC(=O)[C@@H](NC(=O)[C@H](CC(=O)O)NC(=O)[C@H](CO)NC(=O)[C@@H](NC(=O)[C@H](Cc1ccccc1)NC(=O)[C@@H](NC(=O)CNC(=O)[C@H](CCC(=O)O)NC(=O)[C@H](C)NC(=O)[C@@H](N)Cc1cnc[nH]1)[C@@H](C)O)[C@@H](C)O)C(C)C)C(=O)N[C@@H](CCC(=O)O)C(=O)N[C@@H](Cc1ccccc1)C(=O)N[C@H](C(=O)N[C@@H](C)C(=O)N[C@@H](Cc1c[nH]c2ccccc12)C(=O)N[C@@H](CC(C)C)C(=O)N[C@H](C(=O)N[C@@H](CCCNC(=N)N)C(=O)NCC(=O)N[C@@H](CCCNC(=N)N)C(=O)NCC(=O)O)C(C)C)[C@@H](C)CC)C(=O)O`: in series [1], the Activity result is “Toxic”. This compound also displayed an AUC at 24 h in series [2] of 3410 ng·h/mL. In addition, the MRT in series [3] is 6.6 h.

As a reminder, the AUC is concentration integrated over time. A high value points to high exposure. As usually defined, the MRT is a mean duration of stay, worked out from the concentration-time curve.
